Assay results from ChEMBL document CHEMBL3044814, “Seasonal changes in chemical composition of epicuticular waxes from the leaves of Baccharis linearis” (1999).
Converted amounts (≈) assume the structure as drawn.

Assays:
Artemia salina = assay: Toxicity against Artemia salina (brine shrimp); assay type: functional
Spodoptera littoralis = assay: Antifeedant activity against fifth-instar larvae of Spodoptera littoralis at 10 ug/cm'2 by disk-choice assay; assay type: functional

| SMILES | LC50 (Artemia salina) [µg/mL] | FR50 (Spodoptera littoralis) |
| --- | --- | --- |
| CC(=O)Oc1ccc(/C=C/C(=O)O)cc1CC=C(C)C | < 50 | – |
| CC(=O)OC/C=C(/CC[C@@]1(C)[C@H](C)CC[C@@]2(CO)C(COC(C)=O)=CCC[C@@H]21)COC(C)=O | > 100 | 0.99 |
| COc1cc(-c2oc3cc(O)cc(O)c3c(=O)c2OC)ccc1O [3,3'-O-DIMETHYLQUERCETIN] | ≤ 10 | – |
| COc1c(-c2ccc(O)c(O)c2)oc2cc(O)cc(O)c2c1=O [3-O-METHYLQUERCETIN] | 10 (≈ 31.6 µM) | – |
| C=C(COC(C)=O)C1Cc2cc(O)c(C(C)=O)cc2O1 (centres undefined) [ACETYLATED DIHYDROBENZOFURAN] | ≤ 10 | 0.75 |
| CC1(C)CC[C@]2(CO)CC[C@]3(C)C(=CC[C@@H]4[C@@]5(C)CC[C@H](O)C(C)(C)[C@@H]5CC[C@]43C)[C@@H]2C1 [ERYTHRODIOL] | 50 (≈ 113 µM) | 0.88 |
| COc1c(-c2ccc(O)cc2)oc2cc(O)cc(O)c2c1=O [ISOKAEMPFERIDE] | ≤ 10 | – |
| CCCC#CC#C/C=C/C(=O)OC [LACHNOPHYLLUM ESTER] | 5 (≈ 28.4 µM) | 0.31 |
| CC1(C)CC[C@]2(C(=O)O)CC[C@]3(C)C(=CC[C@@H]4[C@@]5(C)C[C@@H](O)[C@H](O)C(C)(C)[C@@H]5CC[C@]43C)[C@@H]2C1 [MASLINIC ACID] | 20.2 (≈ 42.7 µM) | 1.34 |
| CC1(C)CC[C@]2(C(=O)O)CC[C@]3(C)C(=CC[C@@H]4[C@@]5(C)CC[C@H](O)C(C)(C)[C@@H]5CC[C@]43C)[C@@H]2C1 [OLEANOLIC_ACID] | 10 (≈ 21.9 µM) | 1.34 |
| C=C1CC[C@@H]2[C@H]([C@H]3[C@H]1CC[C@]3(C)O)C2(C)C [SPATHULENOL] | < 3 | – |
| COC(=O)/C=C/c1ccc2c(c1)C=CC(C)(C)O2 [WERNERIACHROMENE] | < 3 | 0.2 |
